Measurements taken from patent publication US10898465B2, “Utility of (+) epicatechin and their analogs” (Epirium Bio Inc., priority 2016, dated 2021).
Read-outs that look alike come from different tables or passages of the source.

Legend:
[1] = Effect on triglyceride level in animals on High Fat Diet; format: in vivo, mice; details: 15 days
Experimental: Animals were placed on High Fat Diet (HFD) until they gain more than 20% of Body weight compared with animals on standard chow and reached glycemia levels ≥200 mg/dL (usually 4-6 weeks). Animals were randomly assigned to Control (obese group) receiving vehicle only (by gavage): n=12; (+)-Epicatechin—orally by gavage: n=10: (−)-Epicatechin—orally by gavage: n=10.
All animals were treated for 15 days and continued under HFD. The results are presented at FIG. 3.

[2] = Oral pharmacokinetic study in mice, plasma LC-MS/MS; format: in vivo; details: 10 mpk, female Balb C mice
Experimental: Female Balb C mice 4 per group after overnight fasting were dosed orally (via gavage) with compound 1 in 5% NMP in normal saline (10 ml/kg). Blood was collected by serial bleeding at 0.16 hr, 0.5 hr, 1 hr, 2 hr, 4 hr, 6 hr, 8 hr in heparinized tubes. Blood samples were centrifuged at 10,000 rpm for 5 min. at 4° C. to obtain the plasma, which were aspirated into separate labeled tubes and stored at −80° C. 400 ng/ml of standard in acetonitrile was used as the drug extraction solvent for extracting drug from plasma. Extraction solvent was added to plasma was vortexed and shaken on shaker for 10 minutes, centrifuged at 10,000 rpm for 10 minutes at 4° C. Supernatant was kept for analysis.
Acetonitrile and plasma calibration curves were generated and percentage of drug recovery from plasma determined. Quantitative analysis was done by liquid chromatography tandem mass spectrometer (API3200 LC-MS/MS). Cmax, Tmax, AUC and t1/2 were calculated using Graph Pad PRISM version 5.04 and the results were depicted in Table 3.

[3] = system: Electron Transport Chain Complex IV; experiment: increase of the expression of Electron Transport Chain IV (ETC IV); format: cell-based; details: for EC50: increase of expression of ETC IV, read-out: EC50 on mitochondrial ETC complexes: Electron Transport Chain Complex IV
From the text: The present invention discloses a remarkable range of biological activity across the two enantiomers of epicatechin, something heretofore not described for flavonoids as a class. The enantiomer of (−)-epicatechin is (+)-epicatechin. […]

AMP kinase = experiment: cell-based fluorescent ELISA of AMP kinase phosphorylation status in cultured cells; details: AMP kinase phosphorylation (pAMPK) in cultured cells
Experimental: The compounds of the present invention were tested for their activity on AMP kinase. The activity on AMP kinase was evaluated by quantitative fluorescent immunoenzymatic assay of AMP kinase phosphorylation status in cultured cells. The 5-AMP-activated protein kinase (AMP kinase) is a key sensor of intracellular energy balance. AMP kinase is activated in response to an increase in the AMP/ATP ratio which can be caused by a number of factors such as muscle contraction, starvation, or hypoxia. AMP kinase is a heterotrimeric protein complex comprising of (63 kDa),—(38 kDa) and—•(38 kDa) subunits. For each subunit, isoforms have been identified (1, 2, 1, 2, 1, 2, 3) which theoretically allow the formation of 12 different proteins. The -subunit contains a serine/threonine kinase domain and the regulatory subunits contain binding sites for AMP and ATP (-subunit) and for glycogen (-subunit). AMP kinase is activated by phosphorylation on Thr-172 within the catalytic domain. AMP binding results in a 2 to 5-fold increase in AMP kinase activity compared to the basal level. […]
BioAssay Systems' cell-based ELISA measure phosphorylated AMP kinase in whole cells and normalizes the signal to the total protein content. […] AMP kinase phosphorylation (pAMPK) is measured using a fluorescent ELISA followed by total protein measurement in each well.

Row | AUC [2] | Elimination t½ [2] | EC50 [3] | AUC ([2]; mouse, 10 mg/kg, read-out: AUC) | half-life ([2]; mouse, 10 mg/kg, read-out: Elimination t½ (converted)) | SMILES | improvement over (−)-epicatechin in dose giving the same triglyceride reduction ([1]; 0.003 vs 0.1 mg/Kg/day, oral) | reduction in triglyceride levels ([1]; (+)-epicatechin 0.003 mg/Kg/day vs (−)-epicatechin 0.1 mg/Kg/day, orally by gavage, FIG. 3 triglycerides content of livers) | fold more potent than (−)-epicatechin on increase of the expression of ETC IV ([3]; (+)-epicatechin versus (−)-epicatechin) | concentration at which AMPK activity is exhibited (AMP kinase)
1 | 0.683 µM·h | 2.13 h | 0.1 µM | – | – | Oc1cc(O)c2c(c1)O[C@@H](c1ccc(O)c(O)c1)[C@@H](O)C2 [(+)-Epicatechin] | > 30 fold | shows the same reduction in triglyceride levels as (−)-epicatechin | approximately 400 fold | –
2 | – | – | 40 µM | – | – | Oc1cc(O)c2c(c1)O[C@H](c1ccc(O)c(O)c1)[C@H](O)C2 [(−)-Epicatechin, reference compound] | – | – | – | –
3 | – | – | – | 2.8 µM·h | 4.5 h | CCCCCCCC(=O)Oc1cc(O)cc2c1C[C@H](O)[C@H](c1ccc(O)c(O)c1)O2 [Compound 1001, (2S,3S)-2-(3,4-dihydroxyphenyl)-3,7-dihydroxychroman-5-yl octanoate] | – | – | – | 1 nM
